According to patent US8791272B2, “Pyrazole compounds as CRTH2 antagonists” (Boehringer Ingelheim International GmbH, priority 2011, dated 2014):

Target: human CRTH2 receptor (Homo sapiens (Human), UniProt Q9Y5Y4)
Test: CRTH2 receptor radioligand binding assay (SPA, [3H]-PGD2 displacement)
Details: [3H]-PGD2 1 nM, CHO-K1-hCRTH2 cell membranes, SPA format, 3 h room temperature
Description: The binding of CRTH2 antagonists is determined using membranes prepared from Chinese hamster ovary cells (CHO-K1 cells) transfected with the human CRTH2 receptor (CHO-K1-hCRTH2 cells, Perkin Elmer, Cat No ES-561-C). To produce cell membranes the CHO-K1-hCRTH2 cells are cultured in suspension in CHO SFMII medium supplemented with 400 μg/ml G418. The cells are harvested by centrifugation at 300 g for 10 min at room temperature. The cell pellet is resuspended in Phosphate Buffer Saline (PBS) including a protease inhibitor mix (Complete, Roche) and adjusted to a concentration of 10E7 cells/ml. The CHO-K1-hCRTH2 cells are disrupted by nitrogen […] to obtain the membrane preparation. Cell debris is removed by centrifugation (500 g at 4° C., 30 min) and the supernatant is transferred into fresh tubes followed by a second centrifugation at 40000 g for 1 h at 4° C. to sediment the membranes. The membranes are suspended in SPA incubation buffer (50 mM Tris HCl, 10 mM MgCl2, 150 mM NaCl, 1 mM EDTA, pH 7.4) without bovine serum albumin, homogenized by passing through a single use needle (Terumo, 23G×1″), and stored in aliquots at −80° C.
The CRTH2 receptor binding assay is performed in a scintillation proximity assay (SPA) format with the radioligand [^3H]-PGD2 (Perkin Elmer, NET616000MC). CHO-K1-hCRTH2 cell membranes are again homogenized by passing through a single use needle (Terumo, 23G×1″) and diluted in SPA incubation buffer in suitable concentrations (0.5-10 μg protein/well). The SPA assay is set up in 96 well microtiter plates (Perkin Elmer, CatNo. 6005040) in SPA incubation buffer with a final volume of 200 μl per well and final concentration of 50 mM Tris-HCl, 10 mM MgCl2, 150 mM NaCl, 1 mM EDTA pH 7.4, 0.1% bovine serum albumin). The SPA assay mixture contains 60 μl of the membrane suspension, 80 μl of Wheat Germ Agglutinin coated PVT beads (GE Healthcare, RPNQ-0001, 0.3 mg/well), 40 μl of [3H]-PGD2 diluted in SPA buffer to a final concentration of 1 nM (50 000 dpm) and 20 μl of the test compound (dissolved in dimethylsulfoxid). The SPA assay mixture is incubated for 3 h at room temperature. Bound radioactivity is determined with a scintillation counter (Micro Beta Trilux, Wallac).
The binding of [^3H]-PGD2 to CHO-K1-hCRTH2 cell membranes is determined in the absence (total binding, Bo) and presence (non-specific binding, NSB) of unlabelled PGD2 (1 μM, Cayman Chemical, Cat No 12010) or a reference CRTH2 antagonist (10 μM CAY10471, Cayman Chemical, Cat No 10006735).
Determination of the affinity of a test compound is calculated by subtraction of the non-specific binding (NSB) from the total binding (Bo) or the binding in the presence of the test compound (B) at a given compound concentration. […] The Bo-NSB value is set to 0% inhibition.

Sequence of human CRTH2 receptor (Q9Y5Y4 whole entry): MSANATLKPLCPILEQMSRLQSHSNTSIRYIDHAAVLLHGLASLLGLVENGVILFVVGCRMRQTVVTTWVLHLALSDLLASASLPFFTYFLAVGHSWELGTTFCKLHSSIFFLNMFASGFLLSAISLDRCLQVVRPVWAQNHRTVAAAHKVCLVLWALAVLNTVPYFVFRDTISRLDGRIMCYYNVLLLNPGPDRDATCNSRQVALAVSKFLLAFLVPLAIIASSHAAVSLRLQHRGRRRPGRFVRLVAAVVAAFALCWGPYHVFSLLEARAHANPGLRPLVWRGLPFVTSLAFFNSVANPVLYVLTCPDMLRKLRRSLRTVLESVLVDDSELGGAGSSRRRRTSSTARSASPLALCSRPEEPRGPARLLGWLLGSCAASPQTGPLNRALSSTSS

SMILES	Ki [nM]
CCCc1nn(Cc2ccc(NC(=O)c3ccc(Cl)cc3C)cc2)c(C(C)C)c1CC(=O)O [Example 2.38]	1
CCCc1nn(Cc2ccc(NC(=O)c3ccccc3)cc2)c(C(C)C)c1CC(=O)O [Example 2.39]	1.6
Cc1nn(Cc2ccc(/C=C/c3ccc(C(F)(F)F)cc3)cc2)c(C)c1CC(=O)O [Example 12.2, (3,5-Dimethyl-1-{4-[(E)-2-(4-trifluoromethyl-phenyl)-vinyl]-benzyl}-1H-pyrazol-4-yl)-acetic acid]	56.3
CCc1nn(Cc2ccc(OCc3ccc(Cl)c(C(F)(F)F)c3)cc2)c(CC)c1CC(=O)O [Example 13.7]	4.8

Now those with a lower Ki, led by results:

Ki [nM]	SMILES
0.7	CCCc1nn(Cc2ccc(NC(=O)c3ccc(C(F)(F)F)cc3C)cc2)c(C(C)C)c1CC(=O)O [Example 2.36]
0.4	CCCc1nn(Cc2ccc(NC(=O)c3ccc(Cl)cc3)cc2)c(C(C)C)c1CC(=O)O [Example 2.37]
0.2	CCCc1nn(Cc2ccc(NC(=O)c3ccc(Cl)c(Cl)c3)cc2)c(C(C)C)c1CC(=O)O [Example 2.40]
0.2	CCCc1nn(Cc2ccc(NC(=O)c3ccc(C(F)(F)F)cc3)cc2)c(C(C)C)c1CC(=O)O [Example 2.41]
0.1	CCCc1nn(Cc2ccc(NC(=O)c3ccc4ccccc4c3)cc2)c(C(C)C)c1CC(=O)O [Example 2.42]
